Earlier results in patent publication US20120135949A1, “COMBINATION THERAPY FOR TREATING HCV INFECTION” (BOEHRINGER INGELHEIM INTERNATIONAL GMBH, priority 2010, published 2012).

Test system: HCV
Settings: compound (1) monotherapy, 14 days, 1a and 1b patients

C=C[C@@H]1C[C@]1(NC(=O)[C@@H]1C[C@H](Oc2cc(-c3csc(NC(=O)C(C)C)n3)nc3c(Br)c(OC)ccc23)CN1C(=O)[C@@H](NC(=O)OC1CCCC1)C(C)(C)C)C(=O)O [Compound (1)]
Virologic rebound during the treatment period: vast majority of both 1a and 1b patients demonstrated virologic rebound
